For one series, the target named is T1, FXR (Homo sapiens, UniProt Q96RI1).
T1 sequence (Q96RI1 262-486 limits assumed): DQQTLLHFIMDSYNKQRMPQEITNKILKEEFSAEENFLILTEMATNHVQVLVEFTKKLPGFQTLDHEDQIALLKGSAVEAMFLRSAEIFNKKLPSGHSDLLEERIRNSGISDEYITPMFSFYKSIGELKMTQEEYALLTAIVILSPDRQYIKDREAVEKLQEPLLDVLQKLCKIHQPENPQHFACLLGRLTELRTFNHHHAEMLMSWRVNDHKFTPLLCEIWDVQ
Briefly: FXR agonistic activity, luciferase assay. The series is classed as cell-based. The settings on record: luc2P-GAL4-HEK293 cells transfected with pBIND-FXR, 24 hours. As for the experimental part: The FXR agonistic activity of the compound of the present invention was evaluated using the luciferase assay.
The experimental process comprises the follows. The luc2P-GAL4-HEK293 stably transfected cell line (the cell line was established by transfecting pGL4.35 plasmid with HEK293 cells which was then subjected to Hygromycin B screening. The cell contained 9×GAL4 UAS and firefly luciferase reporter gene. The ligand-activated LBD-GAL4 DBD fusion protein can enter the nucleus to bind to 9×GAL4 UAS and activate the transcription of the downstream luciferase reporter gene) was transferred to a 96-well plate with […] per well. pBIND-FXR (Which was constructed by inserting FXR-LBD into pFN26A-BIND hRluc-neo Flexi® vector. The plasmid was 7.5 kb in size, Amp resistant, contained FXR-LBD, and can express FXR-LBD and GAL4 DBD fusion proteins) was transfected using X-tremeGENE HP transfection reagent. The ratio of plasmid to transfection reagent was 1 μg: 2 μl. The specific amount was 100 ng of plasmid and 0.2 μl of X-tremeGENE HP transfection reagent per well. The test compounds (the highest concentration of each compound was 30 μM, 3-fold dilution, a total of 10 concentrations) were added to induce the expression of luciferase. After 24 hours, the 96-well plate containing the test cells was taken out from the incubator, and placed at room temperature. Dual-Glo® Luciferase Reagent with the volume equal to the volume of the medium in the well (80 μl/well) was added to each well and mixed well. The plate was incubated at room temperature for 20 minutes to allow the cells to be fully lysed. All the liquid in the plate was transferred to a 96-well microtiter plate, and the firefly luciferin value was measured with a multi-function plate reader (manufacturer: Bio Tek (USA); model: Synergy4). Dual-Glo® a Stop & Glo® Reagent with the volume equal to the volume of the initial medium (80 μl/well) was added to each well and mixed well. The plate was incubated at room temperature for 10 minutes, and the renilla luciferin value was measured. The measurement order of renilla fluorescence should be the same as that of firefly fluorescence. Curve fitting and EC50 calculation were conducted using GraphPad Prism 5 software by nonlinear regression method. The fitting equation is: Y=Bottom+(Top−Bottom)/(1+10^((Log EC50−X)*HillSlope)), wherein EC50 refers to the semi-effective concentration, Top refers to the maximum effect, Bottom refers to the blank effect, and HillSlope refers to the slope.

Series [1] has as its system cholestasis rat induced by ANIT. Kind of series: Efficacy on the cholestasis rat model induced by 1-naphthyl isothiocyanate (ANIT). The arrangement: ALT / AST / GGT / TBA: unit not given here. The settings on record: for level of ALT, AST, GGT and TBA in the serum of ANIT rat (in words): 3 and 10 mg/kg/d, conclusion of Test Example 2; for ALT / AST / GGT / TBA: serum, 4 days, ANIT rat. Format: in vivo, SD rats. How it is done:
Animals: SD rats, male, 7 to 8 weeks old, weight: 220 to 240 g, purchased from Beijing Vital River Laboratory Animal Technology Co., Ltd., SPF grade, Certificate No.: SCXK (Beijing) 2016-0011, license issuing administration: Beijing Municipal Commission of Science and Technology.
Sample formulation: The compound of the present invention was added to DMSO, and dissolved completely by ultrasound. 0.5% CMC-Na was added to constant volume (DMSO: 0.5% CMC-Na=1:99), and the solution was homogenized by ultrasound for later use.
After 3 to 5 days of acclimation, the animals were divided into 20 groups according to body weight: normal group, model group, Example 8 (3 mg/kg/d, 10 mg/kg/d) group, Example 11 (3 mg/kg/d, 10 mg/kg/d) group, Example 12 (3 mg/kg/d, 10 mg/kg/d) group, Example 14 (3 mg/kg/d, 10 mg/kg/d) group, Example 20 (3 mg/kg/d, 10 mg/kg/d) group, Example 22 (3 mg/kg/d, 10 mg/kg/d) group, Example 26 (3 mg/kg/d, 10 mg/kg/d) group, Example 28 (3 mg/kg/d, 10 mg/kg/d) group, and Example 29 (3 mg/kg/d, 10 mg/kg/d) group, with 10 rats for each group. Intragastric administration was conducted with an administration volume of 10 mL/kg, once a day, for a total of 4 days. On Day 2, ANIT (1-naphthyl isothiocyanate, Macklin, purity: 98%, item number: N814658, CAS number: 551-06-4, specification: 5 g/bottle, storage conditions: 2 to 8 degrees, batch number: C10116101) with a dose of 50 mg/kg and an administration volume of 5 mL/kg was administered intragastrically once to each animal (except for animals in the normal group) 4 hours after the administration. The animals were fasted on Day 4 morning. The animals were anesthetized by isoflurane inhalation using a small animal anesthesia machine. Blood was collected from the venous plexus behind the eyeball using a capillary glass tube (about 1 ml per animal), and then left to stand for about one hour. It was centrifuged at 3500 rpm for 10 minutes to obtain the serum. ALT, AST, GGT and TBA indexes as well as the plasma concentration of the compound were determined using an AU480 automatic biochemical analysis system (BECKMAN COULTER). Liver was collected, weighed, and cutted into pieces. Normal saline was added (liver weight: normal saline=1:2), and the mixture was homogenized and freezed. The concentration of the compound in liver was determined using an ultra performance liquid chromatograph (Shimadzu, LC 30AD) and triple quadrupole mass spectrometer (AB, TQ5500).

Series [2] can be described thus: Visual inspection of solubility of test sample in extracellular fluid. Format: physicochemical. The settings on record: 1 nM to 1 μM in extracellular fluid pH 7.4, DMSO 0.1%. How it is done:
Extracellular fluid: 140 mM NaCl, 3.5 mM KCl, 1 mM MgCl2, 2 mM CaCl2, 10 mM glucose, 10 mM HEPES, 1.25 mM NaH2PO4, pH=7.4 (adjusted by NaOH). The stock solution of the compound of Example 8 of the present invention (30.26 mM solution in DMSO) was successively diluted with 10 mL of extracellular fluid to obtain 0.3 μM, 1 μM, 3 μM, […], and 30 μM solutions. […] 10 mg of Cisapride was dissolved in 2066.29 μL of dimethyl sulfoxide (DMSO) to obtain a 10 mM stock solution. The Cisapride stock solution was successively diluted with dimethyl sulfoxide (DMSO) to obtain a total of 4 concentrations of 1 μM, 10 μM, 100 μM and 1 mM. Before the test, 10 μL of the diluent at each concentration was added to 10 mL of extracellular fluid to ensure that the DMSO concentration was 0.1%. The final working concentration of Cisapride was 1 nM, 10 nM, 100 nM and 1 μM.

Each structure is given as a SMILES string. Bounds are passed on as bounds.

By EC50 is commonly meant the concentration that produces a half-maximal response. As to `O=C(O)c1ccc(-c2nnc(N3[C@@H]4CC[C@H]3C[C@@H](OCc3c(-c5c(Cl)cccc5Cl)noc3C3CC3)C4)o2)cc1F` [Example 12], the EC50 at FXR fell in the range of 100 to 500 nM. For the same molecule, the “level of ALT, AST, GGT and TBA in the serum of ANIT rat (in words)” value (“level of ALT, AST, GGT and TBA” for short) in series [1] was “significantly reduce”. In addition, in series [1] (3 mg/kg/d intragastric), the ALT was 122.5 ± 89.7, the AST was 314.2 ± 237.9, the GGT worked out at 2.2 ± 0.8 and the TBA stood at 69.0 ± 66.7. In series [1] (10 mg/kg/d intragastric), this molecule displayed an ALT of 54.7 ± 27.3, an AST of 139.3 ± 34.6, a GGT of 1.9 ± 0.5 and a TBA of 25.4 ± 14.3.

`COc1cc(N)c(Cl)cc1C(=O)NC1CCN(CCCOc2ccc(F)cc2)CC1OC` (centres unmarked) [Cisapride, reference compound]: the “solubility, visually inspected” value in series [2] is recorded as “completely dissolved without visible precipitation”.

For `O=C(O)c1csc(-c2nnc(N3[C@@H]4CC[C@H]3C[C@@H](OCc3c(-c5c(Cl)cccc5Cl)noc3C3CC3)C4)o2)c1` [Example 20], at FXR, the concentration for a half-maximal effect (EC50) is 50 to 100 nM. In series [1] (3 mg/kg/d intragastric), the ALT turned out to be 141.5 ± 101.4, the AST turned out to be 400.2 ± 304.4, the GGT is on record as 2.8 ± 1.2 and the TBA is 119.5 ± 124.7. In series [1] (10 mg/kg/d intragastric), this molecule gave an ALT of 50.9 ± 22.4, an AST of 139.8 ± 58.4, a GGT of 2.6 ± 0.5 and a TBA of 16.1 ± 8.0.

As for `O=C(O)c1cccc(-c2nnc(N3[C@@H]4CC[C@H]3C[C@@H](OCc3c(-c5ccccc5OC(F)(F)F)noc3C3CC3)C4)o2)c1` [Example 28], the EC50 at FXR was less than 25 nM. Further, in series [1], the “level of ALT, AST, GGT and TBA” value is reported as “significantly reduce”. In series [1] (3 mg/kg/d intragastric), this molecule yielded an ALT of 147.1 ± 66.2, an AST of 342.7 ± 153.6, a GGT of 2.3 ± 0.5 and a TBA of 66.2 ± 58.4. In series [1] (10 mg/kg/d intragastric), this molecule gave an ALT of 46.6 ± 12.1, an AST of 150.8 ± 28.7, a GGT of 1.9 ± 0.5 and a TBA of 20.5 ± 6.0.

For `O=C(O)c1ccc(-c2nnc(N3[C@@H]4CC[C@H]3C[C@@H](OCc3c(-c5ccccc5OC(F)(F)F)noc3C3CC3)C4)o2)c(F)c1` [Example 29], the half-maximal effective concentration (EC50) at FXR was in the range of 100 to 500 nM. The “level of ALT, AST, GGT and TBA” value in series [1] was “significantly reduce”. In series [1] (3 mg/kg/d intragastric), this molecule displayed an ALT of 82.0 ± 44.5, an AST of 256.0 ± 168.8, a GGT of 2.3 ± 1.1 and a TBA of 51.7 ± 65.2. In series [1] (10 mg/kg/d intragastric), the ALT amounted to 77.8 ± 69.5, the AST is reported as 189.4 ± 76.9, the GGT is 1.9 ± 0.4 and the TBA was determined as 26.8 ± 13.6.

For `O=C(O)c1ccc(-c2nnc(N3[C@@H]4CC[C@H]3C[C@@H](OCc3c(-c5ccccc5OC(F)(F)F)noc3C3CC3)C4)o2)cc1F` [Example 26], on FXR, the EC50 was 100 to 500 nM. Also, the “level of ALT, AST, GGT and TBA” value in series [1] is “significantly reduce”. In series [1] (3 mg/kg/d intragastric), this molecule gave an ALT of 62.2 ± 27.6, an AST of 187.7 ± 50.4, a GGT of 1.9 ± 0.8 and a TBA of 23.2 ± 10.1. In series [1] (10 mg/kg/d intragastric), this molecule gave an ALT of 50.0 ± 11.2, an AST of 162.3 ± 27.7, a GGT of 1.4 ± 0.7 and a TBA of 35.3 ± 13.2.

Values taken from US20220127258A1, “AROMATIC RING OR HETEROAROMATIC RING COMPOUNDS, PREPARATION METHOD THEREFOR AND MEDICAL USE THEREOF” (The National Institutes of Pharmaceutical R&D Co., Ltd., priority 2019, published 2022).
